Laboratory results published in patent US20210253598A1, “ARYL ANNULATED MACROCYCLIC INDOLE DERIVATIVES” (priority 2017, published 2021).
Several values for one entry are separate records, joined by “and”; a condition that tells them apart may be missing. Equal values may be shown once. Where a name gives a salt, the structure may show the parent alone. Read-outs that look alike come from different tables or passages of the source.

Tests used:
[1] = test system: SUDHL10; test: Induction of cytotoxicity in SUDHL10 cells, CellTiter-Glo (Assay 6); format: cell-based; conditions: SUDHL10, 5 hours incubation, median, read-out: Cytotox SUDHL10 [M] (median)
How it was run: (§1)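 Luminescent ATP readout (CellTiter-Glo, 15 min at room temperature) quantifies cytotoxicity after a 5 h compound exposure at 37 °C.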

[2] = test system: A2780; test: Anti-proliferative effect in A2780 cells, CellTiter-Glo (Assay 7); format: cell-based; conditions: several values per example
How it was run: (§2)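 72 h CTG viability assay, 37 °C, humidified. Time-zero plate as baseline; IC50 vs day 0 and DMSO controls.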

[3] = test system: AMO-1; test: Anti-proliferative effect in AMO-1 cells, CellTiter-Glo (Assay 7); format: cell-based
Description: Assessment of the Anti-Proliferative Effect of Compounds in Different Cell Lines
The impact of compounds on the proliferation of different cell lines was assessed using the CellTiter-Glo® Luminescent Cell Viability reagent from Promega (G7573).
In parallel, cells were plated in a reference (day 0) plate for time zero determination. Cells were incubated in a humidified incubator at 37° C. overnight.
Rim wells were excluded. The cells were incubated for 72 hours in a humidified incubator at 37° C. The day 0 plate was measured by adding 30 μL/well of CTG solution (CellTiter-Glo® Luminescent Cell Viability reagent, Promega G7573) to time zero wells in the reference plate followed by a 10 minutes incubation and luminescence reading at 0.1 ms. using the PHERAstar FS microplate reader (BMG Labtech).
After 72 hours incubation, the treated plates were measured in the same way as the day 0 plate mentioned above. The Bella DRC Master Sheet was used to calculate IC50s, with CI=day 0 values and C0=DMSO control values.

[4] = test system: SUDHL10; test: Induction of caspase-3/7 activity in SUDHL10 cells (Assay 4); format: cell-based
How it was run: (§3)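 Luminescent Caspase-Glo 3/7 read-out in SUDHL5 and SUDHL10 cells after 3 h compound exposure at 37 °C, followed by 1 h reagent incubation.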

[5] = test system: SUDHL5; test: Induction of cytotoxicity in SUDHL5 cells, CellTiter-Glo (Assay 6); format: cell-based; conditions: SUDHL5, 5 hours incubation, median, read-out: Cytotox SUDHL5 [M] (median)
How it was run: as §1

[6] = molecular target: MCL-1 (Homo sapiens, UniProt Q07820, K194A/K197A/R201A); test: Protein-protein interaction assay MCL-1/Noxa BH3 peptide, TR-FRET (MCL-1 assay, Assay 1); format: binding; conditions: MCL-1 Assay [M] (median), MBP-MCL-1 / Noxa BH3 peptide
Sequence of MCL-1 (Q07820 173-321 K194A/K197A/R201A, looked up): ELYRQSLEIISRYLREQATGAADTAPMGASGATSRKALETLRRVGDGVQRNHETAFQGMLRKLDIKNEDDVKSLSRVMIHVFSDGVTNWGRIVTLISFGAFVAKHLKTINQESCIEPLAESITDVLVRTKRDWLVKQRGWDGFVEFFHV
How it was run: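 TR-FRET competition between compounds and a biotin-PEG Noxa BH3 tracer for 1 nM MBP-MCL-1 (residues 173-321). Incubation was 1 h at 22 °C in the dark, then overnight at 4 °C, in 50 mM Tris pH 7 buffer with KF and DTT, after a 10-min compound pre-equilibration. Normalized ratios were fitted with a 4-parameter Hill equation to give IC50.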

[7] = test system: SUDHL5; test: Anti-proliferative effect in SUDHL5 cells, CellTiter-Glo (Assay 7); format: cell-based
How it was run: as §2

[8] = test system: SUDHL5; test: Induction of caspase-3/7 activity in SUDHL5 cells (Assay 4); format: cell-based
How it was run: as §3

[9] = test system: MV-4-11; test: Anti-proliferative effect in MV-4-11 cells, CellTiter-Glo (Assay 7); format: cell-based; conditions: several values per example
How it was run: as §2

[10] = Homo sapiens, A2780, 72 h, A2780, 72 hours incubation, CellTiter-Glo, read-out: Antiproli A2780
[11] = Homo sapiens, AMO1, 72 h, AMO-1, 72 hours incubation, CellTiter-Glo; several values per example; read-out: Antiproli AMO-1
[12] = Homo sapiens, SU-DHL10, 3 h, SUDHL10, 3 hours treatment, Caspase-Glo 3/7, median, read-out: Caspase SUDHL10 [M] (median)
[13] = Homo sapiens, SU-DHL-5, 72 h, SUDHL5, 72 hours incubation, CellTiter-Glo, median, read-out: Antiproli SUDHL5 [M] (median)
[14] = Homo sapiens, SU-DHL-5, 3 h, SUDHL5, 3 hours treatment, Caspase-Glo 3/7, median, read-out: Caspase SUDHL5 [M] (median)
[15] = Homo sapiens, MV4-11, 72 h, MV-4-11, 72 hours incubation, CellTiter-Glo, read-out: Antiproli MV-4-11
[16] = read-out: Antiproli AMO-1; AMO-1, 72 hours incubation, CellTiter-Glo; several values per example
[17] = read-out: Caspase SUDHL10 [M] (median), SUDHL10, 3 hours treatment, Caspase-Glo 3/7
[18] = read-out: Caspase SUDHL5 [M] (median), SUDHL5, 3 hours treatment, Caspase-Glo 3/7
[19] = read-out: Antiproli A2780, A2780, 72 hours incubation, CellTiter-Glo
[20] = read-out: Antiproli SUDHL5 [M] (median), SUDHL5, 72 hours incubation, CellTiter-Glo
[21] = read-out: Antiproli MV-4-11, MV-4-11, 72 hours incubation, CellTiter-Glo
[22] = A2780, 72 hours incubation, CellTiter-Glo, read-out: Antiproli A2780
[23] = AMO-1, 72 hours incubation, CellTiter-Glo; several values per example; read-out: Antiproli AMO-1
[24] = MV-4-11, 72 hours incubation, CellTiter-Glo, read-out: Antiproli MV-4-11

Row | Compound | IC50 [6] [M] | IC50 [1] [M] | IC50 [3, 16] | EC50 [4, 17] [M] | IC50 [5] [M] | EC50 [8, 18] [M] | IC50 [2, 19] [M] | IC50 [7, 20] [M] | IC50 [9, 21] | IC50 [2, 22] [M] | IC50 [3, 23] [µM] | IC50 [9, 24] | other results
1 | CCc1c2c(nn1C)COCc1ccccc1Cn1c(C(=O)O)c(CCCOc3cccc4cc(F)ccc34)c3ccc(Cl)c-2c31 (racemic) [Example 54, (rac)-3-Chloro-4-ethyl-17-{3-[(6-fluoronaphthalen-1-yl)oxy]propyl}-5-methyl-5,7,9,14-tetrahydroindolo[7,1-fg]pyrazolo[3,4-d][2,8]benzoxazacycloundecine-16-carboxylic Acid] | 8.3e-10 | – | – | – | – | – | – | – | – | – | – | – | IC50 ([1]; Homo sapiens, SU-DHL10, 5 h): 2.6e-06 M; IC50 [2, 10]: 6.59e-06 M; IC50 [3, 11]: 1.77 µM; EC50 [4, 12]: 1.8e-06 M; IC50 ([5]; Homo sapiens, SU-DHL-5, 5 h): 9.3e-07 M; IC50 [7, 13]: 1.4e-06 M; EC50 [8, 14]: 8.4e-07 M; IC50 [9, 15]: 3.83e-06 M
2 | CCc1nn(C)c2c1-c1c(Cl)ccc3c(CCCOc4cccc5cc(F)ccc45)c(C(=O)O)n(c13)Cc1ccccc1COC2 (racemic) [Example 57, (rac)-3-Chloro-4-ethyl-17-{3-[(6-fluoronaphthalen-1-yl)oxy]propyl}-6-methyl-6,7,9,14-tetrahydro-indolo[7,1-fg]pyrazolo[3,4-d][2,8]benzoxazacycloundecine-16-carboxylic Acid] | 2.7e-09 | – | – | – | – | – | – | – | – | – | – | – | IC50 ([1]; Homo sapiens, SU-DHL10, 5 h): 4.6e-06 M; IC50 [2, 10]: 7.02e-06 M; IC50 [3, 11]: 2.65 µM; EC50 [4, 12]: 4.3e-06 M; IC50 [7, 13]: 2.4e-06 M; EC50 [8, 14]: 1.5e-06 M; IC50 [9, 15]: 2.19e-06 M
3 | Cc1c2c(nn1C)CN(S(=O)(=O)CCN1CCOCC1)Cc1ccccc1Cn1c(C(=O)O)c(CCCOc3cccc4ccccc34)c3cccc-2c31 (single isomer, unassigned; enantiomer 1) [Example 31, (+)-4,5-Dimethyl-8-[2-(morpholin-4-yl)ethanesulfonyl]-17-{3-[(naphthalen-1-yl)oxy]propyl}-7,8,9,14-tetrahydro-5H-indolo[1,7-bc]pyrazolo[4,3-e][2,8]benzodiazacycloundecine-16-carboxylic acid-N-ethylethanamine Salt (Enantiomer 1)] | 1.3e-08 | > 7.8e-05 | 5.93 µM | 9.7e-06 | 5.3e-06 | 5.2e-06 | – | – | – | – | – | – | IC50 ([2]; Homo sapiens, A2780, 72 h, read-out: Antiproli A2780 [M], A2780, 72 hours incubation, CellTiter-Glo): 6.72e-06 M; IC50 ([7]; Homo sapiens, SU-DHL-5, 72 h, read-out: Antiproli SUDHL5 [M] (median), SUDHL5, 72 hours incubation, CellTiter-Glo): 4.8e-06 M; IC50 ([9]; Homo sapiens, MV4-11, 72 h, read-out: Antiproli MV-4-11 [M], MV-4-11, 72 hours incubation, CellTiter-Glo): 5.49e-06 M
4 | Cc1c2c(nn1C)CN(S(=O)(=O)CCN1CCOCC1)Cc1ccccc1Cn1c(C(=O)O)c(CCCOc3cccc4ccccc34)c3cccc-2c31 (single isomer, unassigned; enantiomer 2) [Example 32, (−)-4,5-Dimethyl-8-[2-(morpholin-4-yl)ethanesulfonyl]-17-{3-[(naphthalen-1-yl)oxy]propyl}-7,8,9,14-tetrahydro-5H-indolo[1,7-bc]pyrazolo[4,3-e][2,8]benzodiazacycloundecine-16-carboxylic acid-N-ethylethanamine Salt (Enantiomer 2)] | 1.8e-07 | > 3.3e-05 | 13.5 µM | > 3.3e-05 | > 3.3e-05 | > 3.3e-05 | 1.08e-05 | 4.5e-06 | 8.42e-06 M | – | – | – | –
5 | Cc1c2c(nn1C)COCc1cccnc1Cn1c(C(=O)O)c(CCCOc3cccc4ccccc34)c3ccc(Cl)c-2c31 (single isomer, unassigned; enantiomer 2) [Example 41, 3-Chloro-4,5-dimethyl-17-[3-(naphthalen-1-yloxy)propyl]-5,7,9,14-tetrahydropyrazolo-[4′,3′:9,10]pyrido[3′,2′:3,4][1,6]oxazacycloundecino[8,7,6-hi]indole-16-carboxylic acid-N-ethylethanamine Salt (Enantiomer 2)] | 5.8e-09 | 1.4e-05 | 8.4 µM and 11.2 µM | 1.6e-05 | 6e-06 | 6.1e-06 | > 3.3e-05 | 5.2e-06 | 1.59e-05 M and 8.2e-06 M | – | – | – | –
6 | CCc1nn(CCN2CCOCC2)c2c1-c1c(Cl)ccc3c(CCCOc4cccc5cc(F)ccc45)c(C(=O)O)n(c13)Cc1ccccc1COC2 (single isomer, unassigned; enantiomer 2) [Example 53, (+)-3-Chloro-4-ethyl-17-{3-[(6-fluoronaphthalen-1-yl)oxy]propyl}-6-[2-(morpholin-4-yl)ethyl]-6,7,9,14-tetrahydroindolo[7,1-fg]pyrazolo[3,4-d][2,8]benzoxazacycloundecine-16-carboxylic Acid (Enantiomer 2)] | 8.3e-09 | 6.5e-06 | – | – | 2.3e-06 | – | – | – | – | 8.15e-06 | 9.44 | 4.91e-06 M and 8.2e-06 M | EC50 ([4]; SUDHL10, 3 hours treatment, Caspase-Glo 3/7, median, read-out: Caspase SUDHL10 [M] (median)): 5.9e-06 M; IC50 ([7]; SUDHL5, 72 hours incubation, CellTiter-Glo, median, read-out: Antiproli SUDHL5 [M] (median)): 2.8e-06 M; EC50 ([8]; SUDHL5, 3 hours treatment, Caspase-Glo 3/7, median, read-out: Caspase SUDHL5 [M] (median)): 1.8e-06 M
7 | Cc1c2c(nn1C)COCc1ccccc1Cn1c(C(=O)O)c(CCCOc3cccc4cc(F)ccc34)c3ccc(F)c-2c31 (single isomer, unassigned; enantiomer 2) [Example 66, (+)-3-Fluoro-17-{3-[(6-fluoronaphthalen-1-yl)oxy]propyl}-4,5-dimethyl-5,7,9,14-tetrahydroindolo[7,1-fg]pyrazolo[3,4-d][2,8]benzoxazacycloundecine-16-carboxylic acid-N-ethylethanamine Salt (Enantiomer 2)] | 6.2e-09 | 8.6e-06 | 7.13 µM and 7.07 µM | 1.2e-05 | 4.1e-06 | 3.3e-06 | > 3.3e-05 | 3.6e-06 | – | – | – | – | –
8 | CCc1c2c(nn1C)COCc1ccccc1Cn1c(C(=O)O)c(CCCOc3cccc4ccccc34)c3ccc(F)c-2c31 (single isomer, unassigned; enantiomer 2) [Example 72, (+)-4-Ethyl-3-fluoro-5-methyl-17-{3-[(naphthalen-1-yl)oxy]propyl}-5,7,9,14-tetrahydroindolo[7,1-fg]pyrazolo[3,4-d][2,8]benzoxazacycloundecine-16-carboxylic acid-N-ethylethanamine Salt (Enantiomer 2)] | 5.2e-09 | 2.6e-05 | 18.9 µM | > 2.8e-05 | 8.5e-06 | 1.2e-05 | 1.5e-05 | 1.2e-05 | 9.57e-06 M | – | – | – | –
9 | Cc1c2c(nn1C)COCc1cccnc1Cn1c(C(=O)O)c(CCCOc3cccc4ccccc34)c3cccc-2c31 [Example 05] | – | – | – | – | – | – | – | – | – | 6.65e-06 | 8.78 | 5.48e-06 M | –
10 | Cc1c2c(nn1C)COCc1cccnc1Cn1c(C(=O)O)c(CCCOc3cccc4ccccc34)c3cccc-2c31 [Example 06] | – | – | – | – | – | – | – | – | – | 8.66e-06 | 19.9 | 5.38e-06 M | –
